Reference: US9301938B2, “Composition and method for treatment of diabetes” (BioKier, Inc., priority 2009, dated 2016)

Columns and labels:
obese diabetic patients [1] = experiment: Oral Glucose Tolerance Test (OGTT) or standardized meal after a single dose; format: in vivo, human; details: overnight fasted patients
Protocol: Drug is delivered as an enema or suppositories made as described in^1 (containing 1 g of glutamine). 10 overnight fasted obese diabetic patients with impaired gut hormone effect^3 and/or impaired gut hormone secretion^4,5 are dosed rectally with one suppository (or enema). 30 minutes after drug administration, patients are subjected to Oral Glucose Tolerance Test (OGTT) or standardized meal. Blood is collected at the following time points: −30, 0, 5; 10, 15, 30, 60, 90, and 120 minutes. Blood is analyzed for levels of: glucose, insulin, GLP-1, PYY, other hormones and lipids. […] Drug is delivered as an enema or suppositories made as described in^1 (containing 2 g of butyric acid). 10 overnight fasted obese diabetic patients with impaired incretin effect^3 and/or impaired gut hormone secretion^4,5 are dosed rectally with one suppository (or enema). 30 minutes after drug administration, patients are subjected to Oral Glucose Tolerance Test (OGTT) or standardized meal. Blood is collected at the following time points: −30, 0, 5; 10, 15, 30, 60, 90, and 120 minutes. Blood is analyzed for levels of: glucose, insulin, GLP-1, PYY, other hormones and lipids. […] Tablets formulated with MMX technology (containing 1 g of glutamine) are made as described in^2. 10 overnight fasted obese diabetic patients with impaired gut hormone effect^3 and/or impaired gut hormone secretion^4,5 are dosed with one MMX tablet at 8:00 AM. 4 hrs after drug administration, patients are subjected to Oral Glucose Tolerance Test (OGTT) or standardized meal. Blood is collected at the following time points: −30, 0, 5; 10, 15, 30, 60, 90, and 120 minutes. Blood is analyzed for levels of: glucose, insulin, GLP-1, PYY, other hormones and lipids. […] Tablets formulated with MMX technology (containing 2 g of butyric acid) are made as described in^2. 10 overnight fasted obese diabetic patients with impaired gut hormone effect^3 and/or impaired gut hormone secretion^4,5 are dosed with one MMX tablet at 8:00 AM. 4 hrs after drug administration, patients are subjected to Oral Glucose Tolerance Test (OGTT) or standardized meal. Blood is collected at the following time points: −30, 0, 5; 10, 15, 30, 60, 90, and 120 minutes. Blood is analyzed for levels of: glucose, insulin, GLP-1, PYY, other hormones and lipids.

obese diabetic patients [2] = experiment: Six-week once-daily MMX tablet treatment with OGTT or standardized meal; format: in vivo, human; details: one MMX tablet daily before first meal for six weeks
Protocol: Tablets formulated with MMX technology (containing 1 g of glutamine) are made as described in^2. 10 obese diabetic patients with impaired incretin effect^3 and/or impaired incretin secretion^4,5 are dosed with one MMX tablet at 8:00 AM before first meal for six (6) weeks. HbA1c, fasting glucose and insulin are measured before treatment and at 1, 2, and 6 weeks after initiation of the treatment. Additionally, patients are subjected at these times to Oral Glucose Tolerance Test (OGTT) or standardized meal. Blood is collected at the following time points: −30, 0, 5; 10, 15, 30, 60, 90, and 120 minutes. Blood is analyzed for levels of: glucose, insulin, GLP-1, PYY, other hormones and lipids. […] Tablets formulated with MMX technology (containing 2 g of butyric acid) are made as described in^2. 10 obese diabetic patients with impaired gut hormone effect^3 and/or impaired gut hormone secretion^4,5 are dosed with one MMX tablet at 8:00 AM before first meal for six (6) weeks. HbA1c, fasting glucose and insulin are measured before the treatment and at 1, 2, and 6 weeks after initiation of the treatment. Additionally, patients are subjected at these times to Oral Glucose Tolerance Test (OGTT) or standardized meal. Blood is collected at the following time points: −30, 0, 5; 10, 15, 30, 60, 90, and 120 min. Blood is analyzed for levels of: glucose, insulin, GLP-1, PYY, other hormones and lipids.

[3] = one MMX tablet orally, 4 hrs before OGTT or standardized meal
[4] = one MMX tablet orally, 4 hrs before standardized meal
[5] = one suppository or enema rectally, 30 minutes before OGTT or standardized meal
[6] = one suppository or enema rectally, 30 minutes before standardized meal

Row | SMILES | Glucose levels (obese diabetic patients [1]; [3]) | lipids levels (after standardized meal) (obese diabetic patients [1]; [4]) | Glucose levels (obese diabetic patients [1]; [5]) | lipids levels (after standardized meal) (obese diabetic patients [1]; [6]) | Glucose levels (obese diabetic patients [2]) | triglycerides levels versus pre-treatment (obese diabetic patients [2])
1 | CCCC(=O)O [butyric acid] | decrease | decrease | decrease | decrease | decrease | lower than pre-treatment levels
2 | NC(=O)CC[C@H](N)C(=O)O [glutamine] | decrease | decrease | decrease | decrease | decrease | lower than pre-treatment levels
